Experimental data as given in the supplement of paper PMC10949913.

Columns and labels:
Test in all cases: area under concentration-response curve (viability) (AUC (a.u.)); higher = less active
Settings in all cases: 48 h
CU-ACC2 = test system: CU-ACC2
Method in brief: (§1)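 Library compounds were dispensed at 11 concentrations (23 nL each) onto three adrenocortical carcinoma cell lines in 1,536-well plates. Luminescence was recorded after 48 h using CellTiter-Glo, and signals were normalised per plate to vehicle and empty-well controls. Fitted concentration-response curves of inhibitory or non-responding classes only supplied the AC50 and area under the curve.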

CU-ACC1 = test system: CU-ACC1
Method in brief: as §1

NCI-H295R = test system: NCI-H295R
Method in brief: as §1

| SMILES | area under concentration-response curve (CU-ACC2) | area under concentration-response curve (CU-ACC1) | area under concentration-response curve (NCI-H295R) |
| --- | --- | --- | --- |
| O=C(NCCO[N+](=O)[O-])c1cccnc1 | 605 | 566 | – |
| CCN1CCCC1CNC(=O)c1cc([S+](=O)([O-])CC)c(N)cc1OC (configuration not stated) | 591 | 561 | – |
| COc1c(C)cc(NC(=O)c2nn(Cc3ccc(F)cc3)c3c2CN(C(=O)c2ccc[nH]2)C[C@]3(C)C(N)=O)cc1C | 646 | 567 | – |
| COc1ccc(-n2nc(C(N)=O)c3c2C(=O)N(c2ccc(N4CCCCC4=O)cc2)CC3)cc1 | 374 | – | – |
| O=C(C1CC1)N1CC[C@@H](Cn2c(-c3ccc(-c4ccc5occc5c4)cc3)nc3cnccc32)C1 | 486 | 505 | – |
| COCCCOc1cc(C[C@@H](C[C@H](N)[C@@H](O)C[C@H](C(=O)NCC(C)(C)C(N)=O)C(C)C)C(C)C)ccc1OC | 648 | 564 | – |
| O=C(O)c1ccc(-n2nc(-c3ccccc3O)nc2-c2ccccc2O)cc1 | 590 | – | – |
| C[C@]12CC[C@H]3[C@@H](CC[C@@]45O[C@@H]4\C(=C(/C[C@]35C)C#N)O)[C@@H]1CC[C@@H]2O | 590 | 571 | – |
| CCOCc1nc2c(N)nc3ccccc3c2n1CC(C)(C)O | 562 | 510 | – |
| Nc1c2c(nc3ccccc13)CCCC2 | 653 | 583 | – |
| O=C(c1ccccc1)c1ccc2n1CCC2C(=O)O (configuration not stated) | 529 | 448 | – |
| CCC\C1=C\C(=O)NC(=S)N1 | 545 | 467 | – |
| CC1=C(C=CC=C1)N2\C(=N/C3=C(C(=CC=C3)C)C2=O)C[N]4N=CC5=C4N=CN=C5N | 614 | 583 | – |
| C[N]1C=C(C2=CC=CC=C12)\C3=C(\C(=O)NC3=O)C4=C[N](C5CCN(CC5)CC6=NC=CC=C6)C7=C4C=CC=C7 | 500 | 494 | – |
| CC[C@@H](C)[C@H](NC(=O)[C@H](CC1CCCCC1)NC(=O)c1ccno1)C(=O)N1CCC2(CCc3ccccc32)CC1 | 118 | – | – |
| C[C@]12CC[C@@H]3c4ccc(O)cc4CC[C@H]3[C@@H]1C[C@@H](O)[C@@H]2O | 398 | 388 | – |
| CC1(CN2CCC(n3c(=O)[nH]c4ccccc43)CC2)OCc2ccccc2-n2cccc21 (configuration not stated) | 556 | 494 | – |
| CC(C)c1ccc2c(c1)c(SC(C)(C)C)c(CC(C)(C)C(=O)[O-])n2Cc1ccc(Cl)cc1 | 572 | 457 | – |
| Cl.NC(CO)C(=O)NNCc1ccc(O)c(O)c1O (configuration not stated) | 627 | 562 | – |
| CCCCOc1nc(N)c2c(n1)N(Cc1cccc(CN3CCCC3)c1)CC(=O)N2 | 506 | 538 | – |
| Nc1ncnc2c1nc(Cl)n2[C@@H]1O[C@H](CO)[C@@H](O)[C@H]1O | 542 | 471 | – |
| CNC(=O)C1=CC=C(C)C(=C1)N2C(=C/C(=C(/Br)C2=O)OCC3=C(F)C=C(F)C=C3)\C | 547 | – | – |

| SMILES | area under concentration-response curve (CU-ACC2) | area under concentration-response curve (CU-ACC1) | area under concentration-response curve (NCI-H295R) |
| --- | --- | --- | --- |
| NC(=O)c1ccc(-c2nc(-c3ccc4c(c3)OCCO4)c(-c3ccccn3)[nH]2)cc1 | 366 | – | – |
| Nc1nc(-c2nn(Cc3ccccc3F)c3ncccc23)nc(N)c1N1CCOCC1 | 599 | 605 | – |
| O=C(Nc1cccnc1)c1cc(-c2ccnc(F)c2)ccc1OCc1ccccc1 | 615 | 514 | – |
| NC1CCCN(c2c(/C=C3\SC(=O)NC3=O)cccc2-c2ccccc2)C1 (configuration not stated) | 648 | 563 | – |
| CC1(C)O[C@@H]2C[C@H]3[C@@H]4C[C@H](F)C/5=C/C(=O)/C=C\[C@]5(C)[C@@]4(F)[C@@H](O)C[C@]3(C)[C@@]2(O1)C(=O)CO | 586 | 485 | – |
| N#Cc1cc(NC(=O)Nc2nnc(-c3ccncc3)s2)ccc1-c1cn[nH]c1 | 529 | – | – |
| CC1=C(/C=C/C(C)=C/C=C/C(C)=C\C(=O)O)C(C)(C)CCC1 | 586 | 491 | – |
| CCCCCCCCCCCCCC(=O)N[C@H](CO)[C@H](O)c1ccc([N+](=O)[O-])cc1 | 598 | 502 | – |
| CC(C)(C)c1cc(C=C(C#N)C#N)cc(Br)c1O | 583 | 552 | – |
| CCCCOc1ccc(C(=O)Nc2ccc(F)cc2F)cc1 | 586 | 514 | – |
| O=C/1\C=C(/OC(=C1)/C2=C3SC4=C(SC3=CC=C2)C=CC=C4)N5CCOCC5 | 650 | 550 | – |
| ClC1=CC=C(C=C1)C(C#N)C2=C(Cl)C=C(C=C2Cl)N3\N=C/C(=O)NC3=O (configuration not stated) | 626 | 524 | – |
| CC#C[C@]1(O)CC[C@H]2[C@@H]/3CCC/4=C/C(=O)CCC4=C3[C@H](C[C@]12C)C5=CC=C(C=C5)N(C)C | 546 | – | – |
| O=P(O)(O)C(O)(Cn1ccnc1)P(=O)(O)O | 679 | 628 | – |
| CN1CC/C(CC1)=C3\c4ccccc4CCc2sccc23 | 659 | – | – |
| O=C(Nc1nnc(-c2ccco2)o1)c1cc(-c2ccccc2)nc2ccccc12 | 576 | – | – |
| CC1=CC(=CC(=C1C\C2=N\CCN2)C)C(C)(C)C | 595 | – | – |
| Nc1nc(F)nc2c1ncn2C1OC(COP(=O)(O)O)C(O)C1O (configuration not stated) | 619 | – | – |
| COC1=CC=CC(=C1N)\C2=C\C(=O)C3=C(O2)C=CC=C3 | 591 | – | – |
| C=CC(=O)Nc1ccc(F)c(-c2ncnc3[nH]cc(C(=O)OCC)c23)c1 | 489 | – | – |
| CN1CCCN=C1/C=C/c1cccs1 | 211 | – | – |
| NC1=NC(=O)N2CC12 (configuration not stated) | 592 | – | – |

| SMILES | area under concentration-response curve (CU-ACC2) | area under concentration-response curve (CU-ACC1) | area under concentration-response curve (NCI-H295R) |
| --- | --- | --- | --- |
| COCCCOc1ccnc(CS(=O)c2nc3ccccc3[n-]2)c1C.[Na+] (configuration not stated) | 564 | – | – |
| CO[C@H]1C[C@@H]2CC[C@@H](C)[C@@](O)(O2)C(=O)C(=O)N2CCCC[C@H]2C(=O)O[C@H]([C@H](C)C[C@@H]2CC[C@@H](OP(C)(C)=O)[C@H](OC)C2)CC(=O)[C@H](C)/C=C(\C)[C@@H](O)[C@@H](OC)C(=O)[C@H](C)C[C@H](C)/C=C/C=C/C=C/1C | 536 | – | – |
| OC1=CC=C2\C3=C(CNCC3)/C(=O)OC2=C1C4OCCCO4 | 623 | – | – |
| CC\1=C/C=C\C=[N]1[Pt](N)(Cl)Cl | 450 | – | – |
| O=[S+]([O-])(NCCNC/C=C/c1ccc(Br)cc1)c1cccc2cnccc12 | 595 | – | – |
| CC(C)(N)C(=O)N[C@H](COCc1ccccc1)C(=O)N1CCC2(CC1)CN([S+](C)(=O)[O-])c1ccccc12 | 489 | – | – |
| O=[S+]([O-])(c1cccc2c(I)cccc12)N1CCCNCC1 | 649 | – | – |
| Cc1ccccc1C(=O)c1ccc(Nc2ccc(Br)cc2N)cc1Cl | 502 | – | – |
| C=C1C(=O)OC2/C=C(/C)CC/C=C(/C)CCC12 (configuration not stated) | 598 | – | – |
| COC1=CC=C(C=C1)C2CC(=N/N2C3=CC=C(C=C3)[S+](N)([O-])=O)\C4=CC=CC=C4 (configuration not stated) | 648 | – | – |
| O=C(O)CCc1ccc(NCc2cccc(Oc3ccccc3)c2)cc1 | – | 546 | 599 |
| CN1CCN(CC1)C2=NC3=C(C=CC=C3)C(=N2)C/4=C(/C(=O)NC4=O)C5=C[NH]C6=C5C=CC=C6 | – | 498 | 523 |
| O=C(O)/C(S)=C/c1ccc(I)cc1 | – | 368 | 459 |
| CC[C@@H]1[C@H](F)C(=O)N[C@@H]1COc1nccc2cc(C(N)=O)c(OC)cc12 | – | 472 | 532 |
| CC(=O)CC(C1=CC=CC=C1)C/2=C(O)/C3=CC=CC=C3OC2=O (configuration not stated) | – | 491 | 533 |
| OC[C@H]1O[C@H](C[C@@H]1O)[N]2C=NC3=C2\N=C/NC[C@H]3O | – | 485 | 509 |
| O=C(CCNC(=O)c1ccc(OC(F)(F)F)cc1)N[C@@H]1CCCc2ccccc21 | – | 149 | 81 |
| Cc1ncc(OC[C@@]2(c3cccc(F)c3)C[C@H]2C(=O)Nc2ccc(F)cn2)c(C)n1 | – | 457 | 516 |
| CCCCC[C@H](O)/C=C/[C@H]1[C@H](O)CC(=O)[C@@H]1C/C=C\CCCC(=O)O | – | 485 | 529 |
| CC1=CC(=CC=C1)OC/2=C/NC(=O)/N=C2 | – | 539 | 566 |
| C[C@H](NC(=O)Cc1cc(F)cc(F)c1)C(=O)N[C@@H]1C(=O)N(C)c2ccccc2-c2ccccc21 | – | 516 | 528 |
| CCOc1ccc(Cc2cc([C@@H]3O[C@H](CO)[C@@H](O)[C@H](O)[C@H]3O)ccc2Cl)cc1 | – | 464 | 494 |
